Assay results taken from ChEMBL document CHEMBL5244229, “Thiazole-containing compounds as therapeutic targets for cancer therapy” (Eur J Med Chem, 2020).
Values after ≈ are worked out from the molar mass of the structure shown.

How the values were obtained:
[1] = target: Epidermal growth factor receptor (Homo sapiens, UniProt P00533); test: Inhibition of EGFR (unknown origin)
MV4-11 = test: Anticancer activity against human MV4-11 cells; type: functional, cell-based
HCT-116 [2] = test: Anticancer activity against human HCT-116 cells; type: functional, cell-based
HepG2 [3] = test: Cytotoxicity against human HepG2 cells assessed as reduction in cell viability incubated for 24 hrs by WST-1 assay; type: functional, cell-based; conditions: HepG2, 24 h
HEK293 = test: Antiproliferative activity against human HEK293 cells; type: functional
HCT-116 [4] = test: Antiproliferative activity against human HCT-116 cells assessed as reduction in cell viability; type: functional, cell-based
A549 = test: Antiproliferative activity against human A549 cells; type: functional, cell-based
HepG2 [5] = test: Cytotoxicity against human HepG2 cells; type: functional, cell-based
MCF7 [6] = test: Cytotoxicity against human MCF7 cells; type: functional, cell-based
K562 = test: Anticancer activity against human K562 cells; type: functional, cell-based
HepG2 [7] = test: Cytotoxicity against human HepG2 cells assessed as reduction in cell viability measured after 48 hrs by MTS assay; type: functional, cell-based; conditions: HepG2, 48 h
SMMC-7721 = test: Cytotoxicity against human SMMC-7721 cells; type: functional, cell-based
HepG2 [8] = test: Anticancer activity against human HepG2 cells; type: functional, cell-based
MCF7 [9] = test: Anticancer activity against human MCF7 cells; type: functional, cell-based
HeLa = test: Cytotoxicity against human HeLa cells; type: functional, cell-based
Colon cell line = test: Cytotoxicity against human Colon cell line; type: functional, cell-based
SNU-638 = test: Cytotoxicity against human SNU-638 cells; type: functional, cell-based
AGS = test: Cytotoxicity against human AGS cells; type: functional, cell-based
MKN-74 = test: Cytotoxicity against human MKN-74 cells; type: functional, cell-based
Hep 3B2 = test: Cytotoxicity against human Hep3B cells; type: functional, cell-based
SK-HEP1 = test: Cytotoxicity against human SK-HEP1 cells; type: functional, cell-based
[10] = Cytotoxicity against human SNU-216 cells; type: functional, cell-based
MCF7 [11] = test: Antitumor activity against human MCF7 cells; type: functional, cell-based
HepG2 [12] = test: Antitumor activity against human HepG2 cells; type: functional, cell-based
MDA-MB-435 = test: Cytotoxicity against human MDA-MB-435 cells; type: functional, cell-based

Chain of Epidermal growth factor receptor (P00533 whole entry): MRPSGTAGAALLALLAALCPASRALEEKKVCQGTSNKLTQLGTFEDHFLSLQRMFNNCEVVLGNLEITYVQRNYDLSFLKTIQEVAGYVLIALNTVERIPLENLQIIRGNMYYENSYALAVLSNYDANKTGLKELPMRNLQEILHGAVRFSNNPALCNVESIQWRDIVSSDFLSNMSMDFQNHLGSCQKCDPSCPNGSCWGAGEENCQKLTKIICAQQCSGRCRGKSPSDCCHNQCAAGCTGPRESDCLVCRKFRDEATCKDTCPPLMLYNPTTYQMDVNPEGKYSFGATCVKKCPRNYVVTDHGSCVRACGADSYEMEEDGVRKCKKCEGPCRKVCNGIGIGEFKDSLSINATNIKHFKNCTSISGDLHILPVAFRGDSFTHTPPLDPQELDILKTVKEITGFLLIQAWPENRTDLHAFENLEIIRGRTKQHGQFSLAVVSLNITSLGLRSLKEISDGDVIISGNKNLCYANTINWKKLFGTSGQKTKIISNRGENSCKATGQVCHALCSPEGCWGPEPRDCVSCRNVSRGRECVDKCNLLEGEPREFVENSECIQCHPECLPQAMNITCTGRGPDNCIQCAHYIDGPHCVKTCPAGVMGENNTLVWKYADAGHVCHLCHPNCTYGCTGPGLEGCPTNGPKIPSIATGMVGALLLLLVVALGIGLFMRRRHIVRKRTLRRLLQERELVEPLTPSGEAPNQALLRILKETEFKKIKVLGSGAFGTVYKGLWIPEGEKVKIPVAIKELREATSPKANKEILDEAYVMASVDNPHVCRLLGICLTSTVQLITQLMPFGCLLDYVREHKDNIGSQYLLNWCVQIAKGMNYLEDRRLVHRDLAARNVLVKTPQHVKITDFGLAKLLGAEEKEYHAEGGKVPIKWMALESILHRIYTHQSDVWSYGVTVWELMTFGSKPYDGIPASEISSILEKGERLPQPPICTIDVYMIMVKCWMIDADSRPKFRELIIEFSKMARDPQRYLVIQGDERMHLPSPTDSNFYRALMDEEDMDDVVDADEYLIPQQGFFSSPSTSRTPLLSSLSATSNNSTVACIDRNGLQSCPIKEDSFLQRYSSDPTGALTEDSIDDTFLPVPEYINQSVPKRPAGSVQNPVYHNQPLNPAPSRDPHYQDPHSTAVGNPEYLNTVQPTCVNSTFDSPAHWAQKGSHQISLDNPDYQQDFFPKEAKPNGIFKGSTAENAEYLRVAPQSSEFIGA

FC(F)(F)c1ccc(/C=N/Nc2nc(-c3ccc(Cl)cc3Cl)cs2)cc1
IC50 [1]: 5.48 µM

N#Cc1ccc(S(=O)(=O)Nc2ccc(-c3csc(N/N=C/c4ccc(N(CCCl)CCCl)cc4)n3)cc2)cc1
IC50 (MV4-11): 2.17 µM | IC50 (HCT-116 [2]): 3.02 mg/L

C/C(=N/Nc1nc(C)c(/N=N/c2ccccc2)s1)c1sc(N)nc1C
IC50 (HepG2 [3]): 0.84 µM

CCCCCCCC(=O)SCC/C=C/[C@@H]1CC(=O)NCc2nc(cs2)C2=N[C@@](C)(CS2)C(=O)N[C@@H](C(C)C)C(=O)O1 [LARGAZOLE]
GI50 (HEK293): > 100 µM | IC50 (HCT-116 [4]): 0.39 µM | GI50 (A549): 1.46 µM

Cc1nc(C(Cl)(Cl)S(=O)(=O)c2ccc(Br)cc2)c([N+](=O)[O-])s1
CC50 (HepG2 [5]): < 2.5 µM

Cc1nc(C(Cl)(Cl)S(=O)(=O)c2ccc(Cl)cc2)c([N+](=O)[O-])s1
CC50 (HepG2 [5]): < 2.5 µM

COc1cc(C(=NC#N)c2csc(-c3ccccc3)n2)cc(OC)c1OC
IC50 [1]: 0.02 µM

CC(=O)Nc1ccc(NC(=O)/C(C#N)=C2\SC=C(c3ccccc3)N2c2ccccc2)cc1
IC50 (MCF7 [6]): 9.3 mg/L

C/C(=N/Nc1nc(C)c(/N=N/c2ccc(Cl)cc2)s1)c1sc(N)nc1C
IC50 (HepG2 [3]): 0.52 µM

O=S(=O)(O)c1ccc(/N=N/C(=N\c2nc(-c3ccccc3)cs2)c2cc3ccccc3nc2Cl)cc1
IC50 (MCF7 [6]): 16 µM | IC50 (K562): 13.1 µM

O=C(NC1=NC2C(=O)NN=C(c3ccc(Br)cc3)C2S1)Nc1ccc(Cl)cc1 (stereo not given)
IC50 [1]: 0.08 µM

COc1ccc(/C=C(/C#N)c2nc(-c3cc4ccccc4oc3=O)cs2)cc1OC
IC50 (HepG2 [7]): 2.89 µM

Cc1nc(N2N=C(c3cccs3)CC2c2ccc(C3CC(c4cccs4)=NN3c3nc(C)c(/N=N/c4ccc([N+](=O)[O-])cc4)s3)cc2)sc1/N=N/c1ccc([N+](=O)[O-])cc1 (stereo not given)
IC50 (SMMC-7721): 3 µM | IC50 (HepG2 [7]): 1.37 µM | IC50 (HepG2 [8]): 0.15 µM | IC50 (K562): 0.02 µM | IC50 (HCT-116 [2]): 1.37 µM

COc1ccc(/C=C(/C#N)c2nc(-c3cc4ccccc4oc3=O)cs2)cc1
IC50 (HepG2 [7]): 2.33 µM

Cc1nc(C(Cl)(Cl)S(=O)(=O)c2ccc(F)cc2)c([N+](=O)[O-])s1
CC50 (HepG2 [5]): < 2.5 µM

COc1ccc(S(=O)(=O)Nc2ccc(-c3csc(N/N=C/c4ccc(N(CCCl)CCCl)cc4)n3)cc2)cc1
IC50 (MV4-11): 2.17 µM | IC50 (HCT-116 [2]): 3.02 mg/L

O=[N+]([O-])c1ccc(-c2nn(-c3nc(-c4ccc(Br)cc4)cs3)cc2/C=N/c2nc[nH]n2)cc1
GI50 (MCF7 [9]): > 80 mg/L | GI50 (HeLa): 1.2 mg/L (≈ 2.3 µM)

Cc1ccc(S(=O)(=O)C(Cl)(Cl)c2nc(C)sc2[N+](=O)[O-])cc1
CC50 (Colon cell line; Homo sapiens, Colon cell line): 1 µM | CC50 (HepG2 [5]): < 2.5 µM

CC/C(=C(\c1ccccc1)c1ccc(OCCN(C)C)cc1)c1ccccc1 [TAMOXIFEN]
IC50 (MCF7 [9]): 3.53 µM

COc1ccc(/N=N/c2sc(N/N=C(/C)c3sc(N)nc3C)nc2C)cc1
IC50 (HepG2 [3]): 0.5 µM

C=C(NC(=O)C(=C)NC(=O)c1ccc2c(n1)-c1coc(n1)C(=O)NC(=O)CNC(=O)c1coc(n1)C(=C)NC(=O)[C@H](C(C)(C)O)NC(=O)C(=O)NC(=O)c1nc(oc1C)/C(=C\C)NC[C@H](C(C)C)NC(=O)c1csc-2n1)C(N)=O
IC50 (SNU-638): 0.75 µM | IC50 (AGS): 0.99 µM | IC50 (MKN-74): 2.43 µM | IC50 (Hep 3B2): 1.04 µM | IC50 (HepG2 [5]): 1.3 µM | IC50 (SK-HEP1): 0.99 µM | IC50 [10]: 0.88 µM

CC1=C(C(=O)Nc2nc(-c3ccccc3)cs2)C(c2ccc([N+](=O)[O-])cc2)C(C(=O)Nc2nc(-c3ccccc3)cs2)=C(C)N1
IC50 (HeLa): 0.003 µM

C=C(NC(=O)C(=C)NC(=O)c1csc(C2=N[C@@H]3c4csc(n4)[C@H]4NC(=O)c5csc(n5)C([C@](C)(O)[C@@H](C)O)NC(=O)[C@H]5CSC(=N5)/C(=C/C)NC(=O)C([C@@H](C)O)NC(=O)c5csc(n5)[C@]3(CC2)NC(=O)[C@H](C)NC(=O)C(=C)NC(=O)C(=C)NC(=O)[C@H](C(C)C)N[C@H]2C=Cc3c([C@H](C)O)cc(nc3[C@H]2O)C(=O)O[C@@H]4C)n1)C(N)=O (stereo not given in full)
IC50 (SNU-638): 0.91 µM | IC50 (AGS): 0.71 µM | IC50 (MKN-74): 6.21 µM | IC50 (Hep 3B2): 1.9 µM | IC50 (HepG2 [5]): 1.3 µM | IC50 (SK-HEP1): 1.6 µM | IC50 [10]: 0.75 µM

O=C1NC(=O)/C(=C/c2ccccc2Cl)S1
IC (Colon cell line): 10 µg/mL

C/C=C1\NC(=O)[C@H]([C@@H](C)O)NC(=O)c2csc(n2)-c2ccc(-c3nc(-c4nc(C(=O)N/C(=C/C)C(=O)NC[C@@H](C)O)cs4)cs3)nc2-c2csc(n2)[C@H]([C@@H](C)O)NC(=O)c2csc(n2)[C@H](C(C)(C)O)NC(=O)c2csc1n2
IC50 (SNU-638): 0.99 µM | IC50 (AGS): 1.43 µM | IC50 (MKN-74): 11 µM | IC50 (Hep 3B2): 2.34 µM | IC50 (HepG2 [5]): 1.34 µM | IC50 (SK-HEP1): 2.12 µM | IC50 [10]: 7.5 µM

COc1ccc(-c2csc(NC(=O)CN3CCc4ccccc4C3)n2)cc1
LC50 (Colon cell line; Homo sapiens, Colon cell line): 28 mg/L (≈ 73.8 µM)

C/C(=N/Nc1nc(C)c(/N=N/c2ccccc2)s1)c1nnn(-c2ccccc2)c1C
IC50 (MCF7 [11]): 1.12 µM | IC50 (HepG2 [12]): 3.41 µM

COc1cc(C(=O)c2csc(-c3ccc4[nH]ccc4c3)n2)cc(OC)c1OC
IC50 [1]: 0.008 µM

C/C(=N\NC(=O)c1sc(-c2ccccc2)nc1C)C1=NN(C)C(/N=N/C(=O)c2sc(-c3ccccc3)nc2-c2ccc(C)cc2)C1 (stereo not given)
IC50 (HepG2 [8]): 1.61 mg/L

C=C(NC(=O)C(=C)NC(=O)c1csc(C2=N[C@@H]3c4csc(n4)[C@H]4NC(=O)c5csc(n5)[C@H]([C@](C)(O)[C@@H](C)O)NC(=O)[C@H]5CSC(=N5)/C(=C/C)NC(=O)[C@H]([C@@H](C)O)NC(=O)c5csc(n5)[C@]3(CC2)NC(=O)[C@H](C)NC(=O)C(=C)NC(=O)[C@H](C)NC(=O)[C@H]([C@@H](C)CC)N[C@@H]2C=Cc3c([C@H](C)O)cc(nc3[C@H]2O)C(=O)O[C@@H]4C)n1)C(N)=O [THIOSTREPTON]
IC50 (SNU-638): 0.3 µM | IC50 (AGS): 0.4 µM | IC50 (MKN-74): 4.2 µM | IC50 (Hep 3B2): 0.82 µM | IC50 (HepG2 [5]): 0.71 µM | IC50 (SK-HEP1): 0.74 µM | IC50 [10]: 0.41 µM

CCOC(=O)c1nn(-c2ccc(Cl)cc2Cl)/c(=N/NC(=O)c2sc(-c3ccccc3)nc2C)s1
IC50 (HepG2 [12]): 0.82 µM

CC1=C(C(=O)Nc2nc(-c3ccccc3)cs2)C(c2ccc(Cl)cc2)C(C(=O)Nc2nc(-c3ccccc3)cs2)=C(C)N1
IC50 (HeLa): 0.002 µM

O=C1N/C(=N/c2ccc(-c3nc4ccccc4s3)cc2)S/C1=C/c1ccc([N+](=O)[O-])cc1
IC50 (MCF7 [11]): 0.048 µM | IC50 (HepG2 [12]): 0.036 µM

Nc1nc(-c2ccc(Oc3ccc(Cl)c(Cl)c3)cc2)cs1
IC50 (MDA-MB-435): 0.759 µM

Cc1c(C(=O)Nc2ccccc2)s/c(=N\NC(=O)c2cnc(-c3ccccc3)s2)n1-c1ccccc1
IC50 (HepG2 [8]): 1.98 mg/L

CC(=O)Nc1ccc(NC(=O)/C(C#N)=C2\SC=C(C)N2c2ccccc2)cc1
IC50 (MCF7 [6]): 6.9 mg/L

O=C1N/C(=N/c2ccc(-c3nc4ccccc4o3)cc2)S/C1=C/c1ccc(Cl)cc1
IC50 (MCF7 [11]): 0.019 µM

CCCCCCCC(=O)SCC/C=C/[C@@H]1CC(=O)NCc2nc(cs2)C2=N[C@@](C)(CS2)C(=O)N[C@@H](c2ccccc2)C(=O)O1
GI50 (HEK293): > 100 µM | IC50 (HCT-116 [4]): 0.39 µM | GI50 (A549): 1.46 µM

CCOC(=O)c1csc(NC(=S)Nc2ccc(Cl)cc2)n1
IC50 [1]: 10.1 µM

Cc1ccc(-c2nc(C(=O)Nc3cccc(Cl)c3)cs2)cc1
IC50 (HepG2 [8]): 11.6 µM

O=S(=O)(Nc1ccc(-c2csc(N/N=C/c3ccc(N(CCCl)CCCl)cc3)n2)cc1)c1ccc(F)cc1
IC50 (MV4-11): 2.17 µM | IC50 (HCT-116 [2]): 3.02 mg/L

CC(C)=NNc1nc(-c2ccc(Cl)cc2)cs1
IC50 [1]: 2 µM

C/C(=N/N=c1/[nH]c(-c2ccccc2)c(/N=N/c2ccccc2)s1)[C@H]1CC[C@H]2[C@@H]3CCC4=CC(=O)CC[C@]4(C)[C@H]3CC[C@]12C
IC50 (MCF7 [9]): 5.28 µM

Cc1ccc(-c2nc(C(=O)Nc3ccc([N+](=O)[O-])cc3)cs2)cc1
IC50 (Colon cell line; Homo sapiens, Colon cell line): 10.8 µM | IC50 (HepG2 [8]): 10.8 µM

C/C=C1\NC(=O)[C@H]([C@@H](C)O)NC(=O)c2csc(n2)-c2ccc(-c3nc(-c4nc(C(=O)N/C(=C/C)C(=O)NC[C@H](C)O)cs4)cs3)nc2-c2csc(n2)[C@H]([C@@H](C)O)NC(=O)c2csc(n2)[C@H](C(C)C)NC(=O)c2csc1n2
IC50 (SNU-638): 0.41 µM | IC50 (AGS): 0.5 µM | IC50 (MKN-74): 7.3 µM | IC50 (Hep 3B2): 0.94 µM | IC50 (HepG2 [5]): 0.91 µM | IC50 (SK-HEP1): 0.83 µM | IC50 [10]: 0.44 µM

C/C(=N/N=c1/[nH]c(C)c(/N=N/c2ccccc2)s1)[C@H]1CC[C@H]2[C@@H]3CCC4=CC(=O)CC[C@]4(C)[C@H]3CC[C@]12C
IC50 (MCF7 [9]): 8.87 µM

Cc1nc(C(Cl)(Cl)S(=O)(=O)c2ccccc2)c([N+](=O)[O-])s1
CC50 (HepG2 [5]): < 2.5 µM

COc1cccc2c1C(=O)c1c(O)c3c(c(O)c1C2=O)C[C@@](O)(C(=O)CO)C[C@@H]3O[C@H]1C[C@H](N)[C@H](O)[C@H](C)O1.Cl [DOXORUBICIN HYDROCHLORIDE]
GI50 (HeLa): < 80 mg/L
